Read-outs that look alike come from different tables or passages of the source.
Experiments:
[1] = test system: A2780 cells; assay: Cell Proliferation Assay (Cell Titer Glo), A2780; type: cell-based; conditions: Homo sapiens, read-out: CPEC50 A2780
How it was run: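 Cells seeded at 1000/well, allowed to adhere 3-5 h, then exposed to DMSO-dissolved compounds for 3 days at 37° C., 5% CO2. Medium replaced before Cell Titer Glo addition; luminescence read after 10 min.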

[2] = target: T1, PDK1 kinase (Homo sapiens, UniProt O15530); assay: PDK1 Kinase Alpha Screen Assay; type: biochemical; conditions: PDK1 Kinase Alpha Screen Assay; read-out: PDK1 IC50
T1 sequence (O15530 1-556): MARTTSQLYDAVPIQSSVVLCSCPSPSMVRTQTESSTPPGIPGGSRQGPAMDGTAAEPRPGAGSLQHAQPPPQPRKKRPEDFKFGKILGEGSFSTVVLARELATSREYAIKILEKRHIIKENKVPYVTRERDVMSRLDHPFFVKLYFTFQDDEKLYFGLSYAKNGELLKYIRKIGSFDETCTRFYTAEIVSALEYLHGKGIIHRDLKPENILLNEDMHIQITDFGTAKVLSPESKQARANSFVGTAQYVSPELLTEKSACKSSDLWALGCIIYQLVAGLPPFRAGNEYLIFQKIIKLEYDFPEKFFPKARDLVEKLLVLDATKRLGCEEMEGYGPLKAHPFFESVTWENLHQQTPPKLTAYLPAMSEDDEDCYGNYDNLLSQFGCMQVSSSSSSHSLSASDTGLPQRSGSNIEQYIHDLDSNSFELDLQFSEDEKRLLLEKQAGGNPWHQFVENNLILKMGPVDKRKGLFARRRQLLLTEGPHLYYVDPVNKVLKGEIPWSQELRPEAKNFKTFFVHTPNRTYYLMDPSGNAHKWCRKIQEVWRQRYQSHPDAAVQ
How it was run: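 PDK1 phosphorylated 50 nM biotinylated PDK1-4 peptide with 10 uM ATP in Tris pH 7.5, 10 mM MgCl2, 2 mM DTT, 2.5% DMSO for 3-18 hours. After EDTA stop, phosphopeptide was detected by AlphaScreen using phospho-(Ser/Thr) PKA substrate antibody with protein A/streptavidin beads, read after overnight incubation.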

[3] = test system: PC-3 cells; assay: Cell Proliferation Assay (Cell Titer Glo), PC-3 cell line; type: cell-based; conditions: Homo sapiens, read-out: CPEC50 PC3
How it was run: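 PC-3 cells, 1000 cells/well, left to adhere 3-5 h, then exposed for 3 days at 37° C to compounds as 1:3 serial dilutions from 500× DMSO stocks diluted in growth medium. Medium then replaced with fresh medium and viability read by Cell Titer Glo luminescence.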

[4] = Cell Proliferation Assay, A2780
[5] = PC-3, Cell Proliferation Assay, PC3
[6] = cell proliferation, A2780 cells
[7] = PC-3, cell proliferation, PC3 cells

SMILES	EC50 [1, 4]	IC50 [2]	EC50 [3, 5]	EC50 [1, 6]	EC50 [3, 7]
Cc1cc2cnc(Nc3ccc(C(=O)N4CCOCC4)cc3)nc2cc1OC1CCNCC1 [Compound 648, (4-(6-methyl-7-(piperidin-4-yloxy)quinazolin-2-ylamino)phenyl)(morpholino)methanone]	< 5 µM	< 5 µM	< 5 µM		
O=C(c1ccc(Nc2ncc3cc(-c4nccs4)c(OC4CCNCC4)cc3n2)cc1)N1CCOCC1 [Compound 649, morpholino(4-(7-(piperidin-4-yloxy)-6-(thiazol-2-yl)quinazolin-2-ylamino)phenyl)methanone]	< 5 µM	< 5 µM	< 5 µM		
CN1CCC(Oc2ccc3cnc(Nc4ccc(S(=O)(=O)N5CCOCC5)cc4)nc3c2)CC1 [Compound 869, 7-(1-methylpiperidin-4-yloxy)-N-(4-(morpholinosulfonyl)phenyl)quinazolin-2-amine]		< 5 µM		< 5 µM	< 5 µM
NS(=O)(=O)c1ccc(Nc2ncc3cc(F)cc(-c4ccc5c(c4)CCNC5=O)c3n2)cc1 [Compound 884, 4-(6-fluoro-8-(1-oxo-1,2,3,4-tetrahydroisoquinolin-6-yl)quinazolin-2-ylamino)benzenesulfonamide]		< 5 µM		< 5 µM	< 5 µM
Nc1ccc(-c2cc(F)cc3cnc(Nc4ccc(S(N)(=O)=O)cc4)nc23)cn1 [Compound 885, 4-(8-(6-aminopyridin-3-yl)-6-fluoroquinazolin-2-ylamino)benzenesulfonamide]		< 5 µM		< 5 µM	< 5 µM
CN1CCN(c2ccc(-c3cc(F)cc4cnc(Nc5ccc(S(N)(=O)=O)cc5)nc34)cn2)CC1 [Compound 888, 4-(6-fluoro-8-(6-(4-methylpiperazin-1-yl)pyridin-3-yl)quinazolin-2-ylamino)benzenesulfonamide]		< 5 µM		< 5 µM	< 5 µM
NS(=O)(=O)c1ccc(Nc2ncc3cc(F)cc(-c4ccc(NCCN5CCCC5)nc4)c3n2)cc1 [Compound 892, 4-(6-fluoro-8-(6-(2-(pyrroidin-1-yl)ethylamino)pyridin-3-yl)quinazolin-2-ylamino)benzenesulfonamide]		< 5 µM		< 5 µM	< 5 µM

Other lines, results leading:

EC50 [1, 4]	IC50 [2]	EC50 [3, 5]	EC50 [1, 6]	EC50 [3, 7]	SMILES
	< 5 µM		< 5 µM	< 5 µM	COCCNc1ccc(-c2cc(F)cc3cnc(Nc4ccc(S(N)(=O)=O)cc4)nc23)cn1 [Compound 893, 4-(6-fluoro-8-(6-(2-methoxyethylamino)pyridin-3-yl)quinazolin-2-ylamino)benzenesulfonamide]
	< 5 µM		< 5 µM	< 5 µM	NS(=O)(=O)c1ccc(Nc2ncc3cc(F)cc(-c4ccc(N5CCOCC5)nc4)c3n2)cc1 [Compound 894, 4-(6-fluoro-8-(6-morpholinopyridin-3-yl)quinazolin-2-ylamino)benzenesulfonamide]
	< 5 µM		< 5 µM	< 5 µM	Cn1cc(-c2ccc3cnc(Nc4ccc(S(N)(=O)=O)cc4)nc3c2-c2ccccc2)cn1 [Compound 904, 4-(7-(1-methyl-1H-pyrazol-4-yl)-8-phenylquinazolin-2-ylamino)benzenesulfonamide]
	< 5 µM		< 5 µM	< 5 µM	Cn1cc(-c2ccc3cnc(Nc4ccc(S(N)(=O)=O)cc4)nc3c2-c2ccc(N)nc2)cn1 [Compound 905, 4-(8-(6-aminopyridin-3-yl)-7-(1-methyl-1H-pyrazol-4-yl)quinazolin-2-ylamino)benzenesulfonamide]
	< 5 µM		< 5 µM	< 5 µM	CN1CCN(C(=O)c2ccc(-c3c(-c4cnn(C)c4)ccc4cnc(Nc5ccc(S(N)(=O)=O)cc5)nc34)cc2)CC1 [Compound 906, 4-(7-(1-methyl-1H-pyrazol-4-yl)-8-(4-(4-methylpiperazine-1-carbonyl)phenyl)quinazolin-2-ylamino)benzenesulfonamide]
